Experiment [1] deals with phosphorylation of BAD in MOLM-16 cells. The experiment is described as follows: pBAD S112 ELISA in cells. The following applies: Homo sapiens, MOLM16, 2.5 hours, RPMI + 10% FBS, read-out: mean (± SD) IC50, pBAD inhibition. In kind it is cell-based. On the procedure: (§1) The effect of INCB053914 on the level of pBAD was further investigated in KMS-12-BM and MOLM-16 cells, which were suspended in RPMI + 10% fetal bovine serum (FBS) and seeded into 96-well v-bottom polypropylene plates (Greiner, Munroe, North Carolina; 4 × 10^5 cells/well/100 μl) in the presence of 5 μl INCB053914 at a final concentration range of 0.1 nM to 1,000 nM. After 2.5 hours at 37°C and 5% CO2, the cells were lysed in 100 μl of cell extraction buffer (Cell Signaling Technology) containing phenylmethane sulfonyl fluoride, Halt^TM phosphatase, and protease inhibitors (Thermo Fisher Scientific, Waltham, Massachusetts; Calbiochem). The concentration of pBAD protein in the cell lysates was quantified using a Human pBAD S112 ELISA Kit (Cell Signaling Technology).
Background: An ELISA detects its analyte on a solid surface through an enzyme-linked reagent.

In experiment [2] the test system is phosphorylation of BAD in KMS-12-BM cells. As to the kind of experiment: pBAD S112 ELISA in cells. The following applies: Homo sapiens, 2.5 hours, RPMI + 10% FBS, read-out: mean (± SD) IC50, pBAD inhibition. The format is cell-based. On the procedure:
as §1

For experiment [3], the system named is PIM2 expression and 4E-BP1 phosphorylation in whole blood samples. The experiment is described as follows: Pharmacodynamic assessment of blood samples from patients with AML in the phase 1/2 trial. In kind it is in vivo, human. The following applies: patients with AML receiving INCB053914 100 mg twice a day; blood 0 to 6 hours post-dose.
A further experiment concerns the target PIM1 (Homo sapiens, UniProt P11309). As to the kind of experiment: PIM1 AlphaScreen kinase assay. As to conditions: 1 mM ATP; read-out: Mean (SD) IC50. The format is biochemical. How it is done:
(§2) The activity of INCB053914 against the PIM1 and PIM3 kinases was measured using AlphaScreen® assays (PerkinElmer, Inc., Shelton, Connecticut), and against PIM2 kinase using a time-resolved fluorescence resonance energy transfer assay (see Supporting Information, S1 File)
AlphaScreen assay. Reactions (20 μl) were carried out in white 384-well polystyrene plates (Greiner Bio-One, Kremsmünster, Austria) dotted with 0.8 μl of the compound in dimethylsulfoxide in the assay buffer (50 mM Tris, pH 7.5, 0.01% Tween-20, 5 mM MgCl2, 0.01% bovine serum albumin [BSA], 5 mM dithiothreitol) containing 0.05 μM Biotin-labeled Bcl-2–associated death promoter protein peptide substrate (AnaSpec, Fremont, California), 1 mM ATP, and 2.5 pM PIM1 (Invitrogen, Thermo Fisher Scientific, Waltham, Massachusetts), or 1.25 pM PIM3 (Millipore, Billerica, Massachusetts) enzyme. […] After the reactions were stopped, the plates were incubated for 1 hour in the dark at room temperature and then read on a PHERAstar FS plate reader (BMG Labtech, Cary, North Carolina) under reduced light.
On the technique in general: Bead proximity is the source of the signal in Alpha formats.

A further experiment deals with PIM2 (Homo sapiens, UniProt Q9P1W9). As to the kind of experiment: PIM2 time-resolved fluorescence resonance energy transfer assay. As to conditions: 1 mM ATP; read-out: Mean (SD) IC50. The format is biochemical. How it is done:
as §2
Time-resolved fluorescence resonance energy transfer assay. Reactions (20 μl) were carried out in white 384-well polystyrene plates dotted with 0.8 μl of the compound in dimethylsulfoxide in the assay buffer (50 mM Tris, pH 7.5, 0.01% Tween-20, 5 mM MgCl2, 0.01% BSA, 5 mM dithiothreitol) containing 0.05 μM fluorescein-labeled CREBtide peptide substrate (Invitrogen), 1 mM ATP, and 1 nM PIM2 (Invitrogen). After 2 hours at 25°C, reactions were stopped with 10 μl RT-FRET dilution buffer (Invitrogen) supplemented with 30 mM EDTA and 1.5 nM LanthaScreen Tb-CREB pSer133 antibody (Invitrogen). After a 30-minute incubation at room temperature, plates were read on a PHERAstar FS plate reader (BMG Labtech).

Another experiment concerns the target SGK3 (Homo sapiens, UniProt Q96BR1). The experiment is described as follows: Kinase selectivity panel. In kind it is biochemical. As to conditions: [ATP] = 1 mM.
In the next experiment the target is KDR (Homo sapiens, UniProt P35968). The experiment is described as follows: Kinase selectivity panel. As to conditions: [ATP] = 1 mM. In kind it is biochemical.
A further experiment deals with JNK1 (Homo sapiens, UniProt P45983). The experiment is described as follows: Kinase selectivity panel. In kind it is biochemical. The following applies: [ATP] = 1 mM.
Experiment [4] relates to PIM kinase substrates (p70S6K/S6 and 4E-BP1) in MOLM-16, Pfeiffer and KMS-12-PE/BM cell lines. As to the kind of experiment: Western blot of PIM kinase substrate phosphorylation in cell lines. In kind it is cell-based. The following applies: MOLM-16 (AML), Pfeiffer (DLBCL), KMS-12-PE/BM (MM); 0 to 1 μM, 2 hours. On the procedure: Inhibition of PIM kinase substrate phosphorylation (BAD, S6, p70S6K, and 4E-BP1) and the upregulation of PIM2 (chosen because of its reduced susceptibility to in vitro kinase inhibition) by INCB053914 was determined by incubating 10^6 MOLM-16 (AML), Pfeiffer (DLBCL), KMS-12-PE (MM), and KMS-12-BM (MM) cells with INCB053914 at concentrations ranging from 0 (phosphate-buffered saline [PBS]) to 1 μM for 2 hours in Roswell Park Memorial Institute (RPMI) medium. Cells were centrifuged at 1,000 rpm for 10 minutes and lysed with 1× lysis buffer (Cell Signaling Technology, Danvers, Massachusetts) supplemented with 1 mM phenylmethane sulfonyl fluoride (Sigma-Aldrich, St Louis, Missouri) and proteinase inhibitor cocktail (CalBiochem, San Diego, California). Cell lysates were stored at –80°C before determining phosphoprotein and PIM2 levels by Western blotting using anti-pBAD (S112), anti-p4E-BP1 (S65), pp70S6K (T389), pS6 (S285/S286), and anti-PIM2 antibodies (Cell Signaling Technology).
For orientation: A western blot detects proteins with antibodies after separation by electrophoresis.

Another experiment has as its target HIPK3 (Homo sapiens, UniProt Q9H422). As to the kind of experiment: Kinase selectivity panel. In kind it is biochemical. As to conditions: [ATP] = 1 mM.
The next experiment concerns the target SGK2 (Homo sapiens, UniProt Q9HBY8). As to the kind of experiment: Kinase selectivity panel. In kind it is biochemical. As to conditions: [ATP] = 1 mM.
In a further experiment the target is CHEK2 (Homo sapiens, UniProt O96017). The experiment is described as follows: Kinase selectivity panel. In kind it is biochemical. The following applies: [ATP] = 1 mM.
A further experiment concerns the target NLK (Homo sapiens, UniProt Q9UBE8). The experiment is described as follows: Kinase selectivity panel. In kind it is biochemical. The following applies: [ATP] = 1 mM.

SGK3, sequence (Q96BR1 whole entry, species assumed): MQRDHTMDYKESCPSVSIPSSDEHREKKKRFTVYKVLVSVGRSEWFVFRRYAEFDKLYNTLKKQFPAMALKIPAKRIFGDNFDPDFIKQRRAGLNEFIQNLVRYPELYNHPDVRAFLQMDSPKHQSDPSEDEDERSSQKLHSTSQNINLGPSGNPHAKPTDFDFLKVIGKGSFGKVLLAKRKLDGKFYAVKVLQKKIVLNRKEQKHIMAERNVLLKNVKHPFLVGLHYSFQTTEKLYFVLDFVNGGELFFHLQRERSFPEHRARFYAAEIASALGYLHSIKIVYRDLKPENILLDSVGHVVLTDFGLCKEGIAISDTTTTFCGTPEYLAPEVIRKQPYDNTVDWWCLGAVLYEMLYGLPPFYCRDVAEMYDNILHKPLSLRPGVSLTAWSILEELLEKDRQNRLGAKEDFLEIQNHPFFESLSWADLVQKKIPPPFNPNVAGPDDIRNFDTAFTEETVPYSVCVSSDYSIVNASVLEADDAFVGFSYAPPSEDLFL
PIM1, sequence (P11309 whole entry): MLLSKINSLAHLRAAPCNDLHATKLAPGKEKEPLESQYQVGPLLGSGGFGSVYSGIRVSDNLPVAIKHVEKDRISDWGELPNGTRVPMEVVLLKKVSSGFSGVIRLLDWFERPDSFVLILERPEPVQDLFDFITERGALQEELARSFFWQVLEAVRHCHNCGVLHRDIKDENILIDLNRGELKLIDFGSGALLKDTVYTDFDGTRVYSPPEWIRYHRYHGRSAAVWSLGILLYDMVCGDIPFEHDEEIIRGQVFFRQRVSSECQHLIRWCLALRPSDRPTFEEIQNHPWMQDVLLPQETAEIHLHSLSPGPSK
CHEK2, sequence (O96017 whole entry): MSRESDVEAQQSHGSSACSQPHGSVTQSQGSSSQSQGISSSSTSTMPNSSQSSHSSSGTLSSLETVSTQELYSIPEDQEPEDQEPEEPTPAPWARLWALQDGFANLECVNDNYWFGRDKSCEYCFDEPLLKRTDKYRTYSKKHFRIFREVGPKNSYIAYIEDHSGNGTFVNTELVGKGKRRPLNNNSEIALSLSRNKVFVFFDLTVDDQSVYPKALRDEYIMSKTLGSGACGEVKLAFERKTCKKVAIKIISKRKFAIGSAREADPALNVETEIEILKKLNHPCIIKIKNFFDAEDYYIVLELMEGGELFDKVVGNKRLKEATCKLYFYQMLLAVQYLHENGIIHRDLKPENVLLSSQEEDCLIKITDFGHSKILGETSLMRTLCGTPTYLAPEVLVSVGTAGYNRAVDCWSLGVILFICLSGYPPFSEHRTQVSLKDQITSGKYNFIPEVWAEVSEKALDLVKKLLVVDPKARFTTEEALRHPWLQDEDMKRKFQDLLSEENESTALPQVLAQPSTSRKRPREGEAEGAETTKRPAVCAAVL
HIPK3, sequence (Q9H422 whole entry): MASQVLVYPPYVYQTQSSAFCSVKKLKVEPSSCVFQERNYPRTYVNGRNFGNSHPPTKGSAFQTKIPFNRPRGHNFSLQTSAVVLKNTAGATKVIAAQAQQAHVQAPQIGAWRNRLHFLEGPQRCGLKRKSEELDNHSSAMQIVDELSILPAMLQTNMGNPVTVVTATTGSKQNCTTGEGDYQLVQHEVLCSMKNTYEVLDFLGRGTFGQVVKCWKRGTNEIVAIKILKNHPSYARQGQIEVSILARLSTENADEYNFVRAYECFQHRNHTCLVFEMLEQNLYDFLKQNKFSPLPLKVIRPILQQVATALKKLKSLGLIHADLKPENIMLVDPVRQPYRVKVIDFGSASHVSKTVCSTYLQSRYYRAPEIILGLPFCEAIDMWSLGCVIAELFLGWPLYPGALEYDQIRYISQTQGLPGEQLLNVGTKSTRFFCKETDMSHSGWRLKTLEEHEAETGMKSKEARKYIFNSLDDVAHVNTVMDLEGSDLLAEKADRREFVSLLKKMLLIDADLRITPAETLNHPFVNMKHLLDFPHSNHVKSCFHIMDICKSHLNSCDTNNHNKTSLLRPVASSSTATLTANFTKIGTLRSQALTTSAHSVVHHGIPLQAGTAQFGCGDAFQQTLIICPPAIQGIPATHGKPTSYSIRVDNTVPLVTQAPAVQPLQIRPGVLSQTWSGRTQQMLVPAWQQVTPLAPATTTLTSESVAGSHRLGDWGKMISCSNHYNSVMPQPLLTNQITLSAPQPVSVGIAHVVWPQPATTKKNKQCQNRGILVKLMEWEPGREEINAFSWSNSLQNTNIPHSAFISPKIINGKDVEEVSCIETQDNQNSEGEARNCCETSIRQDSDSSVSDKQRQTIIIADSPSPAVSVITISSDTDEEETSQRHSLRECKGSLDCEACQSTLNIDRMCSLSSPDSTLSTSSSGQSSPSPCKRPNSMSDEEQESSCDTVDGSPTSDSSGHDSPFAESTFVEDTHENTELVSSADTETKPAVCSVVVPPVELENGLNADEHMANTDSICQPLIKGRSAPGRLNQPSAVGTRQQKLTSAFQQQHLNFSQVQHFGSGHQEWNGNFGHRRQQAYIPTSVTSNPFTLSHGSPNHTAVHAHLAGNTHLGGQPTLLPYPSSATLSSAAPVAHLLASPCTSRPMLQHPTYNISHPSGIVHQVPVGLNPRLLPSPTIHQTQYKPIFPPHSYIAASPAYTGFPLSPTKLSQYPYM
SGK2, sequence (Q9HBY8 whole entry, species assumed): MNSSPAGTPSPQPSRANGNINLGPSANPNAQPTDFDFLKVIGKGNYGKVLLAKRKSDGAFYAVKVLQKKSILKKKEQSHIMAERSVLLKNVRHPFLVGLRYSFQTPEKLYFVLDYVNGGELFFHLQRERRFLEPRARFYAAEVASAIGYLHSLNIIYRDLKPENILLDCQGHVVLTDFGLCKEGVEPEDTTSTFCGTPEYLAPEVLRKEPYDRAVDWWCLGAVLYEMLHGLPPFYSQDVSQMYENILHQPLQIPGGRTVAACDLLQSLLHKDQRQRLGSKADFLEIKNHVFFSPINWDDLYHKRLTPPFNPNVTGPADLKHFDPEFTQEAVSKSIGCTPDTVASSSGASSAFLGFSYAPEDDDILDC
NLK, sequence (Q9UBE8 whole entry): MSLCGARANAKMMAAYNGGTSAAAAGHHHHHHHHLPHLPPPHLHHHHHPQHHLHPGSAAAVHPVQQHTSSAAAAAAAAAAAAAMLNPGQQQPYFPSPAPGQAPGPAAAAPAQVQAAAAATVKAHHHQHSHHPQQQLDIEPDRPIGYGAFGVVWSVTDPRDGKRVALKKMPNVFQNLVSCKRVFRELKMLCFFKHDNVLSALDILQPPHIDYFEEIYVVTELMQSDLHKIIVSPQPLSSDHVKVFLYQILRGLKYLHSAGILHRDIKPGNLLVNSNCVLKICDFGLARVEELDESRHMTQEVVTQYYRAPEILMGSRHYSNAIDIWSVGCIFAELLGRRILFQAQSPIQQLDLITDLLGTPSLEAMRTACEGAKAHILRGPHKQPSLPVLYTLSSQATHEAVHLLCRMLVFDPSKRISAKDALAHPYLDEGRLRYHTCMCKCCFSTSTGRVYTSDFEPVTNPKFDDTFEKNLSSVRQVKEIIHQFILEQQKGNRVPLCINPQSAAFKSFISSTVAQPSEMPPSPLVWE
PIM2, sequence (Q9P1W9 whole entry): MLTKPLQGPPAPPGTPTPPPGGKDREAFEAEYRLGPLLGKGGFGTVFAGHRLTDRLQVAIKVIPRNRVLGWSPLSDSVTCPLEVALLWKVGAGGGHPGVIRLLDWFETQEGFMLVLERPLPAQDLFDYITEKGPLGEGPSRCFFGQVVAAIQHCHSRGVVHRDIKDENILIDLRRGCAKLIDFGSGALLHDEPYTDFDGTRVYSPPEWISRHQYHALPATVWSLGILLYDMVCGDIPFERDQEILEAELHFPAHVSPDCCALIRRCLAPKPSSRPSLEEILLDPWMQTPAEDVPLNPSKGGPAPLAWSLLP
JNK1, sequence (P45983 whole entry): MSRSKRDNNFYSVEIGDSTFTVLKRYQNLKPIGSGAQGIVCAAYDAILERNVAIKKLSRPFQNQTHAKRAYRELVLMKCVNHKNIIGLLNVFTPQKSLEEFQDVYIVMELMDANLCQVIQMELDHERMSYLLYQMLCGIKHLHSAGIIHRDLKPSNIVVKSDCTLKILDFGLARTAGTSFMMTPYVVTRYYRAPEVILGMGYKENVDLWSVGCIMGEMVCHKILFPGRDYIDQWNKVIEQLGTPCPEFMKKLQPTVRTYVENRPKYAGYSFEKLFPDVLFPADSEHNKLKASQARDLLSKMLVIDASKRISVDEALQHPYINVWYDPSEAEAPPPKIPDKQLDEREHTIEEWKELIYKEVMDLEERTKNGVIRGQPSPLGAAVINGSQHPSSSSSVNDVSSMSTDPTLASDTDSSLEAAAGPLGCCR

With `C[C@H]1CN(c2c(NC(=O)c3ccc(F)c(-c4c(F)cccc4F)n3)cnc3c2CC[C@H]3O)C[C@@H](N)[C@@H]1O.O=P(O)(O)O` [INCB053914, N-((R)-4-((3R,4R,5S)-3-amino-4-hydroxy-5-methylpiperidin-1-yl)-7-hydroxy-6,7-dihydro-5H-cyclopenta[b]pyridin-3-yl)-6-(2,6-difluorophenyl)-5-fluoropicolinamide phosphate], the 50% inhibitory concentration (IC50) is 4 nM in experiment [1]; 27 nM in experiment [2]; 0.24 nM at PIM1; 30 nM on PIM2; over 20000 nM at SGK3; over 20000 nM against KDR. Further, the IC50 at JNK1, against HIPK3, against SGK2, against CHEK2 and against NLK was over 20000 nM throughout. Besides, the 4E-BP1 phosphorylation entry in [3] is on record as “a decrease in 4E-BP1 phosphorylation”. For the same compound, the PIM2 expression levels result in experiment [3] is “an increase in PIM2 expression levels”. For the same compound, the “phosphorylation of downstream PIM kinase substrates (p70S6K/S6 and 4E-BP1)” value in experiment [4] was “inhibited the phosphorylation of downstream PIM kinase substrates (p70S6K/S6 and 4E-BP1) in a dose-dependent manner”.

By IC50 is commonly meant the midpoint of a concentration-inhibition curve.

The values above are taken from PMC6013247, “Preclinical characterization of INCB053914, a novel pan-PIM kinase inhibitor, alone and in combination with anticancer agents, in models of hematologic malignancies” (PLoS ONE, 2018).
